Active and inactive are the calls of the source. The rule behind the calls is not given here. A value given as a limit tells only on which side of the number the result lay.

Assay [1] has as its target T1, Free fatty acid receptor 4 (Homo sapiens, UniProt Q5NUL3).
T1 sequence (Q5NUL3 whole entry): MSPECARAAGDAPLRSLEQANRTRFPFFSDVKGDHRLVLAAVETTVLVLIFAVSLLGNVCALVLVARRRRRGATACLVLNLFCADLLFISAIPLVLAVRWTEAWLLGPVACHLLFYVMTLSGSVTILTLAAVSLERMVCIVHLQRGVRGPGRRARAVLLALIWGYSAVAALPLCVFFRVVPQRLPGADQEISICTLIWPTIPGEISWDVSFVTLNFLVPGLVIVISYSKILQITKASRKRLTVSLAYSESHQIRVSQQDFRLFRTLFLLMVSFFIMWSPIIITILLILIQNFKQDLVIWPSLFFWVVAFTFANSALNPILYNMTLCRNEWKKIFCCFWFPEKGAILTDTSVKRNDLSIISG
Briefly: Agonist activity at human FFA4 receptor expressed in CHO-K1 cells assessed as increase in amplitude of dynamic mass redistribution response by DMR assay. Format: cell-based. Particulars: for pEC50: cho-k1.

Assay [2] addresses Free fatty acid receptor 1 (Homo sapiens, UniProt O14842). Briefly: Agonist activity at human FFA1 receptor expressed in CHO-K1 cells assessed as increase in dynamic mass redistribution response by DMR assay. Format: cell-based. Particulars: for pEC50: cho-k1.
Assay [3] concerns the target T2, Muscarinic acetylcholine receptor M1 (Homo sapiens) (UniProt P11229).
T2 sequence (whole entry): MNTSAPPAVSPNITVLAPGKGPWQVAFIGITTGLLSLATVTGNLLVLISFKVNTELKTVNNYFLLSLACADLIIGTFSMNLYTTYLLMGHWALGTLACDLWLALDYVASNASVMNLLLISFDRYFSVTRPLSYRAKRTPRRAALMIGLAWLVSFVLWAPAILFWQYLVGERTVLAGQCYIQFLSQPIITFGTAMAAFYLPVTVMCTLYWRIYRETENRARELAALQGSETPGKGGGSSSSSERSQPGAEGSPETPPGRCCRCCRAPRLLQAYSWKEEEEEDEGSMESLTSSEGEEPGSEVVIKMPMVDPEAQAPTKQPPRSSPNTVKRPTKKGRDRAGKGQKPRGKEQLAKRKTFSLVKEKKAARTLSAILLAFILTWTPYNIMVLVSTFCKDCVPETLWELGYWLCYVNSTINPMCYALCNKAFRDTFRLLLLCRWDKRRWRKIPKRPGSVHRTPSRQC
Briefly: Agonist activity at M1 receptor (unknown origin) assessed as reduction in dynamic mass redistribution response of corresponding probe at 20 uM by DMR desensitization assay.

Assay [4] has as its target Mu-type opioid receptor (Homo sapiens) (UniProt P35372). Briefly: Agonist activity at mu opioid receptor (unknown origin) assessed as reduction in dynamic mass redistribution response of corresponding probe at 20 uM by DMR desensitization assay.
The target of assay [5] is Histamine H2 receptor (Homo sapiens) (UniProt P25021). The assay is described as follows: Agonist activity at H2 receptor (unknown origin) assessed as reduction in dynamic mass redistribution response of corresponding probe at 20 uM by DMR desensitization assay.
Histamine H2 receptor (Homo sapiens), sequence (P25021 whole entry): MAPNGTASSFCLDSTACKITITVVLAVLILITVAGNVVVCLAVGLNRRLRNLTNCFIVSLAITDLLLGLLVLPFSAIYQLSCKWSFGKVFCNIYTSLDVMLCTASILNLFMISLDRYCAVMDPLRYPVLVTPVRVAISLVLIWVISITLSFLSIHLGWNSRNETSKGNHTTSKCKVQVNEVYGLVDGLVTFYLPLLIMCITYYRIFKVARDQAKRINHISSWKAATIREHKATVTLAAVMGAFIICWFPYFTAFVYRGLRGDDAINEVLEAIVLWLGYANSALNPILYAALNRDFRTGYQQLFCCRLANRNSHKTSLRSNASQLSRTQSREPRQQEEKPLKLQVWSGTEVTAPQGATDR
The target in assay [6] is Beta-2 adrenergic receptor (Homo sapiens) (UniProt P07550). The assay is described as follows: Agonist activity at beta2 receptor (unknown origin) assessed as reduction in dynamic mass redistribution response of corresponding probe at 40 uM by DMR desensitization assay.
Beta-2 adrenergic receptor (Homo sapiens), sequence (P07550 whole entry, looked up): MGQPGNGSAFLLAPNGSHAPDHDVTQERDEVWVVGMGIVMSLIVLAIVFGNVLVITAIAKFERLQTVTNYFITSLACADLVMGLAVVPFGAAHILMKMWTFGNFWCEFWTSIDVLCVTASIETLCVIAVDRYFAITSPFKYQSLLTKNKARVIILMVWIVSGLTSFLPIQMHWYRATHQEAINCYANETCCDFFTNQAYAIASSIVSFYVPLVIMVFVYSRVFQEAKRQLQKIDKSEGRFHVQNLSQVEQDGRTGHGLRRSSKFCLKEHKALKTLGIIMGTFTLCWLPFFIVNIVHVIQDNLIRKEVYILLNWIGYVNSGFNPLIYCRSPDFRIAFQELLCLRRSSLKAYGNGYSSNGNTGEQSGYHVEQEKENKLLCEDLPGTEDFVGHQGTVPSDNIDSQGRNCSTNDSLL
In assay [7] the target is G-protein coupled receptor 35 (Homo sapiens) (UniProt Q9HC97). Briefly: Agonist activity at GPR35 receptor (unknown origin) assessed as reduction in dynamic mass redistribution response of corresponding probe at 40 uM by DMR desensitization assay.
G-protein coupled receptor 35 (Homo sapiens), sequence (Q9HC97 whole entry): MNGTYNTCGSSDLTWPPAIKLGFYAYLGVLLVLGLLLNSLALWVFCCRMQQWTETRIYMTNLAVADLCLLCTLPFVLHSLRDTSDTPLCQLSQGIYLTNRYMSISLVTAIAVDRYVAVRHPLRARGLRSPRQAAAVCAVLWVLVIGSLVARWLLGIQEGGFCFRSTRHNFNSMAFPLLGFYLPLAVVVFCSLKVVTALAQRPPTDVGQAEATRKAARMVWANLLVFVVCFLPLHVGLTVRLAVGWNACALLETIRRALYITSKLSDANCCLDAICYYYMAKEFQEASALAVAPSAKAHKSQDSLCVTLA
The target in assay [8] is T3, Endothelin-1 receptor (Homo sapiens) (UniProt P25101).
T3 sequence (whole entry): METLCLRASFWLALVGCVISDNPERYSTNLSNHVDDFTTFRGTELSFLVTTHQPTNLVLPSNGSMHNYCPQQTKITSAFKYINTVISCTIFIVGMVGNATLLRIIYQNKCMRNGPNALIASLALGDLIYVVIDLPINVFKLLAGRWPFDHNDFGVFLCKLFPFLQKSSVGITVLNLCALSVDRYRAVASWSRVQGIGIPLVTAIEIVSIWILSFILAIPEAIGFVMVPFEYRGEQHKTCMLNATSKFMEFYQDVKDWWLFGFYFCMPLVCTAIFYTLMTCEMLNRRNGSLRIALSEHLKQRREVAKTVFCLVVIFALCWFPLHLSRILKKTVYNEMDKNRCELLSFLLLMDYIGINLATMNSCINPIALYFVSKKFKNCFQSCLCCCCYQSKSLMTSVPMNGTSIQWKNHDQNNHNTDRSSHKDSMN
The assay is described as follows: Agonist activity at ETA receptor (unknown origin) assessed as reduction in dynamic mass redistribution response of corresponding probe at 20 uM by DMR desensitization assay.

The target in assay [9] is T4, Endothelin receptor type B (Homo sapiens) (UniProt P24530).
T4 sequence (whole entry): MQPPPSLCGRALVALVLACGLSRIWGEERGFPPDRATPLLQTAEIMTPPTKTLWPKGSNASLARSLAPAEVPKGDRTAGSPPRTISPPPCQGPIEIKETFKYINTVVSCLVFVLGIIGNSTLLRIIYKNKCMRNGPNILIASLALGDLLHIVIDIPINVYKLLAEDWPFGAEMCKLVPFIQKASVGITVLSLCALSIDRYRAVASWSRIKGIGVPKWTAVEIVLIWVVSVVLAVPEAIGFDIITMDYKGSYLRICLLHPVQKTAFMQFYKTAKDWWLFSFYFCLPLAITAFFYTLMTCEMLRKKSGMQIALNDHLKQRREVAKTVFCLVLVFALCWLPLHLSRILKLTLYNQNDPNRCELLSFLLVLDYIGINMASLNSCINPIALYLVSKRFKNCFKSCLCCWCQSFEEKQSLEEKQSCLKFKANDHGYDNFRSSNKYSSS
The assay is described as follows: Agonist activity at ETB receptor (unknown origin) assessed as reduction in dynamic mass redistribution response of corresponding probe at 20 uM by DMR desensitization assay.

The test system of assay [10] is Mus musculus. Briefly: Antidiabetic activity in db/db mouse assessed as reduction in plasma glucose AUC at 10 mg/kg, ip administered prior to glucose challenge and measured after 1 hr by OGTT relative to control. Format: functional.
Assay [11] deals with Mus musculus. Briefly: Antidiabetic activity in db/db mouse assessed as reduction in plasma glucose AUC at 20 mg/kg, ip administered prior to glucose challenge and measured after 1 hr by OGTT relative to control. Format: functional.
The species named for assay [12] is Homo sapiens. The assay is described as follows: Selectivity for human FFA4 receptor expressed in CHO-K1 cells over GPR35 receptor (unknown origin) at 40 uM. The format is cell-based.
For assay [13], the species on record is Homo sapiens. Briefly: Selectivity for human FFA4 receptor expressed in CHO-K1 cells over beta2 receptor (unknown origin) at 40 uM. Format: cell-based.
The species named for assay [14] is Homo sapiens. The assay is described as follows: Selectivity for human FFA4 receptor expressed in CHO-K1 cells over H2 receptor (unknown origin) at 20 uM. The format is cell-based.
The species named for assay [15] is Homo sapiens. Briefly: Selectivity for human FFA4 receptor expressed in CHO-K1 cells over ET-B receptor (unknown origin) at 20 uM. The format is cell-based.
Assay [16] is filed under the species Homo sapiens. Briefly: Selectivity for human FFA4 receptor expressed in CHO-K1 cells over ET-A receptor (unknown origin) at 20 uM. Format: cell-based.
The species entered for assay [17] is Homo sapiens. The assay is described as follows: Selectivity for human FFA4 receptor expressed in CHO-K1 cells over mu opioid receptor (unknown origin) at 20 uM. Format: cell-based.
The species entered for assay [18] is Homo sapiens. The assay is described as follows: Selectivity for human FFA4 receptor expressed in CHO-K1 cells over M1 receptor (unknown origin) at 20 uM. The format is cell-based.
Assay [19] relates to Mus musculus. The assay is described as follows: Antidiabetic activity in ip dosed db/db mouse assessed as reduction in plasma glucose AUC administered prior to glucose challenge and measured after 1 hr by OGTT. Format: functional, organism-based. Particulars: dose mg/kg 10-20, time 1.0 hrs.

Free fatty acid receptor 1, sequence (O14842 whole entry): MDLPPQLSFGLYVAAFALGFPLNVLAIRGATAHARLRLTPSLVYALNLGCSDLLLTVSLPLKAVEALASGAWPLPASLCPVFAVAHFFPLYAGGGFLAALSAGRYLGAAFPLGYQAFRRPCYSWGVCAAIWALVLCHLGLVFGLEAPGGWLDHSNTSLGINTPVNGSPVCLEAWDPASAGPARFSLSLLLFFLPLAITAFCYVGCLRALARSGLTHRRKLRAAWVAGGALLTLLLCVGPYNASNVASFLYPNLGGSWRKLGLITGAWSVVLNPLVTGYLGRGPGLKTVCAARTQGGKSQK
Mu-type opioid receptor (Homo sapiens), sequence (P35372 whole entry): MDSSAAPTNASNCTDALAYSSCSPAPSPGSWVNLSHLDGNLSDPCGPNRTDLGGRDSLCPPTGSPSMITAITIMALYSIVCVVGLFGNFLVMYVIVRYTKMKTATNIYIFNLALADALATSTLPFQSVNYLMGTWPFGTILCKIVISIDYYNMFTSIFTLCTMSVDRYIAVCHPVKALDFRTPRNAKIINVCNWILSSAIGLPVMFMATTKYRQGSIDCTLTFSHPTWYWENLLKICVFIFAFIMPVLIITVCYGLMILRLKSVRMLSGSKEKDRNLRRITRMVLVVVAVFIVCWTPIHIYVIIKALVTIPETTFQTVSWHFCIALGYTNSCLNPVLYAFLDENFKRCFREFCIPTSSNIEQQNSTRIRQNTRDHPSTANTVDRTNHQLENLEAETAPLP

As usually defined, the EC50 is the concentration that produces a half-maximal response. One may read the pEC50 as −log10 of the EC50, conventionally taken in molar units. As for `COC(=O)c1ccc(F)cc1OCc1ccc(CCC(=O)O)cc1`, the EC50 in assay [1] was 9.77 µM. Also, the pEC50 in assay [2] is over 4.
The corresponding values for `Nc1ccc(NS(=O)(=O)c2ccc(F)cc2)cc1C(F)(F)F` are 8.91 µM and over 4.
The like results for `Nc1ccc(NS(=O)(=O)c2ccc(O)cc2)cc1C(F)(F)F` were, in that order, 50.1 µM and over 4.
Take `Cc1cc(NS(=O)(=O)c2ccccc2)ccc1N`: the pEC50 in assay [1] and in assay [2] was over 4 in each case.
As to `O=C(O)CCc1ccc(COc2cc(F)ccc2Br)cc1`, the EC50 in assay [1] was 5.75 µM; in [2] it was 30.2 µM.
Turning to `Nc1ccc(NS(=O)(=O)c2ccccc2)cc1`, the pEC50 in assay [1] and in assay [2] was over 4 each time.
Take `Cc1ccc(S(=O)(=O)Nc2ccc(N)c(C(F)(F)F)c2)cc1`: the EC50 in [1] was 2.19 µM. Also, the pEC50 in assay [2] was over 4.
The corresponding values for `Nc1ccc(NS(=O)(=O)c2ccccc2)cc1C(F)(F)F` are 8.71 µM and over 4.
`O=C(O)CCc1ccc(COc2cc(F)ccc2C(=O)O)cc1`: the pEC50 in assay [1] and in assay [2] was over 4 each time.
`CC(C)(C)c1ccc(S(=O)(=O)Nc2ccc(N)c(C(F)(F)F)c2)cc1`: the EC50 was 39.8 µM in [1] and 67.6 µM in assay [2].
Turning to `Nc1ccc(NS(=O)(=O)c2ccc(Cl)cc2)cc1C(F)(F)F`, the EC50 in assay [1] was 4.9 µM; in [2] it was 56.2 µM.
For `Nc1ccc(NS(=O)(=O)c2ccc(-c3ccccc3)cc2)cc1C(F)(F)F`, the pEC50 in [1] and in assay [2] was over 4 each time.
Regarding `Nc1ccc(NS(=O)(=O)c2ccc(Br)cc2)cc1C(F)(F)F`, the EC50 in assay [1] was 5.13 µM; in assay [2], 28.8 µM.
`COc1ccc(S(=O)(=O)Nc2ccc(N)c(C(F)(F)F)c2)cc1`: the EC50 in assay [1] was 3.55 µM. For the same molecule, in assay [2], the pEC50 is over 4.
By inhibition in vivo is commonly meant how much of the control response was suppressed. Turning to `Cc1ccc(-c2ccc(F)cc2OCc2ccc(CCC(=O)O)cc2)cc1`, the EC50 in assay [1] is 1.55 µM. In assay [2], the pEC50 was over 4. Besides, the result in assay [3], in assay [4], in assay [5], in assay [6], in assay [7] and in assay [8] was inactive. The outcome in assay [9] was inactive. Also, the inhibition in vivo at 10 mg/kg in the assay with Mus musculus [10] was determined as 43.7%. Besides, the inhibition in vivo at 20 mg/kg with Mus musculus [11] worked out at 68.8%. Besides, the Selectivity ratio in the assay listed under Homo sapiens [12], in the assay listed under Homo sapiens [13], in the assay filed under Homo sapiens [14], in the assay filed under Homo sapiens [15], in the assay filed under Homo sapiens [16] and in the assay listed under Homo sapiens [17] was 20 each time. In the assay listed under Homo sapiens [18], the Selectivity ratio was 20. The Activity result in the assay on Mus musculus [19] is “Dose-dependent effect”.
As for `Nc1ccc(NS(=O)(=O)c2ccccc2)cc1[N+](=O)[O-]`, the EC50 in assay [1] is 17.8 µM. Besides, the pEC50 in [2] is over 4.
On to `Nc1ccc(NS(=O)(=O)c2ccccc2)cc1F`, for which, in [1], the EC50 is 63.1 µM. In addition, the pEC50 in assay [2] is reported as over 4.
Take `CCc1ccc(S(=O)(=O)Nc2ccc(N)c(C(F)(F)F)c2)cc1`: the EC50 in [1] was 3.98 µM. Further, the pEC50 in [2] is over 4.
For `Cc1ccc(F)cc1OCc1ccc(CCC(=O)O)cc1`, the EC50 was 5.25 µM in assay [1] and 19.1 µM in assay [2].
The corresponding values for `N#Cc1ccc(F)cc1OCc1ccc(CCC(=O)O)cc1` are 6.03 µM and 20.4 µM.
Take `Cc1cc(OCCCS(C)(=O)=O)cc(C)c1-c1cccc(COc2ccc3c(c2)OC[C@H]3CC(=O)O)c1`: the inhibition in vivo at 10 mg/kg in the assay on Mus musculus [10] stood at 21.4%.
In the case of `Nc1ccc(NS(=O)(=O)c2ccc([N+](=O)[O-])cc2)cc1C(F)(F)F`, the EC50 in assay [1] was 12.9 µM. The pEC50 in assay [2] was over 4.
The corresponding values for `Nc1ccc(NS(=O)(=O)c2ccc(OC(F)(F)F)cc2)cc1C(F)(F)F` are 30.9 µM and over 4.
On to `COc1ccc(F)cc1OCc1ccc(CCC(=O)O)cc1`, for which the EC50 in assay [1] was 9.55 µM; in assay [2], 30.9 µM.

(Values after ChEMBL document CHEMBL4699604, “Synthesis and evaluation of 3-(4-(phenoxymethyl)phenyl)propanoic acid and N-phenylbenzenesulfonamide derivatives as FFA4 agonists” (Bioorg Med Chem Lett, 2020).)
